# Measurements reported in patent publication US7700101B2, “Reagents and method for modulating Dkk-mediated interactions” (Wyeth, priority 2001, dated 2010).
# Numbering of substitutions follows the chain as printed. Names and notes keep the numbering of the source. “Also recorded” adds a separate entry of the source.
# B1: Dkk-1-AP: Dkk-1 modified with alkaline phosphatase (protein)
# chain: TLNSVLNSNAIKNLPPPLGGAAGHPGSAVSAAPGILYPGGNKYQTIDNYQPYPCAEDEECGTDEYCASPTRGGDAGVQICLACRKRRKRCMRHAMCCPGNYCKNGICVSSDQNHFRGEIEETITESFGNDHSTLDGYSRRTTLSSKMYHTKGQEGSVCLRSSDCASGLCCARHFWSKICKPVLKEGQVCTKHRRKGSHGLEIFQRCYCGEGLSCRIQKDHHQASNSSRLHTCQRH
# modifications: left off: large carriers
# notes: Dkk-1 modified with alkaline phosphatase
# B2: Dkk-1 mutant (C220A): Dkk-1 mutant where cysteine 220 was changed to alanine (protein)
# chain: B1 chain with C189A
# Columns and labels:
# [1] = test system: Wnt pathway (TCF-luciferase reporter); test: TCF-luciferase assay of LRP5 variants in U2OS cells; assay type: cell-based, human; conditions: for susceptibility to modulation by Dkk / activation of TCF-luciferase reporter construct: U2OS cells; for susceptibility to modulation by Dkk: in the presence of Dkk1 and Wnt1; for activation of TCF-luciferase reporter construct: in the presence of Wnt
# Excerpt: Site-directed mutants of LRP5 were generated in the full-length human LRP5 cDNA using the QuikChange XL-Site-Directed Mutagenesis Kit (catalog #200516, Stratagene, La Jolla, Calif.) following the manufacturers protocol. The mutant sequences were introduced using complementary synthetic oligonucleotides:
# All constructs were sequence verified to ensure that only the engineered modification was present in the gene. Once verified, each variant was functionally evaluated in the TCF-luciferase assay in U2OS cells (essentially as described in Example 7. Other functional evaluations could also be performed, such as the Xenopus embryo assay (essentially as described in Example 6), or other assays to evaluate Wnt signaling, Dkk modulation, or anabolic bone effect. Binding of these mutants to Dkk, LRP-interacting proteins, Dkk-interacting proteins, or peptide aptamers to any of the preceding could also be investigated in a variety of ways such as in a two-hybrid system (such as in yeast as described in this application), or other methods.
# U2OS human osteosarcoma cells were also utilized. U2OS cells (ATCC) were seeded into 96-well plates at 30,000 cells per well in 200 ul of the growth media (McCoy's 5A) containing 10% (v/v) heat-inactivated FBS, 1X penicillin streptomycin, and 1×Glutamax-1, and incubated overnight at 37° C. The following day, the media was replaced with OptiMEM (Invitroge) and cells were transfected using […] (as described by the manufacturer, Invitrogen) with. 0.005 μg/well of LRP5, HBM, LRP6 or contoI plasmid DNA (empty vector pcDNA3.1) and either Wnt1 (0.0025 ug/well) or Wnt3a (0.0025 ug/well) plasmid DNA. In addition, the 16x-(AS) TCF-TK-firefly-luciferase (Ramesh Bhat, WHRI, Wyeth) and control TK-renilla luciferase (Promega Corp.) were co-transfected at 0.3 ug/well and 0.06 ug/well respectively in all experiments. […] In other experiments, cells were co-transfected with 0.005 μg/well of LRP5, 0.0025 ug/well of Wnt1 or Wnt3 a (using […] of a control pcDNA3.1) with LRP5-interacting aptamers (0.05 ug/well). Cells were cultured for an additional 18-20 hours at 37° C. Culture medium was removed. Cells were then lysed with 100 μl/well of 1X Passive Lysis Buffer (PLB) of Dual Luciferase Reagent kit (DLR-kit-Promega Corp.) 20 μl of the lysates were combined with LARII reagent of DLR-kit and assayed for TCF-firefly luciferase signal in Top Count (Packard) instrument. After measuring the Firefly readings, 100 μl of the “Stop and Glo” reagent of DLR kit that contains a quencher and a substrate for renilla luciferase was added into each well. Immediately the renilla luciferase reading was measured using the Top Count (Packard) Instrument. The ratios of the TCF-firefly luciferase to control renilla readings were calculated for each well and the mean ratio of triplicate or more wells was expressed in all data.
# [2] = test system: endogenous LRP5/6; test: Cell-based TCF reporter high-throughput assay, endogenous LRP5/6; set-up: species or system human; conditions: U2OS cells
# Excerpt: To develop a high throughput assay, the TCF-luciferase assay described in Example 7 was modified utilizing low level expression of endogenous LRP5/6 in U2OS and HEK293 cells. […] Using U2OS (human osteosarcoma) and HEK293 (ATCC) cells, the TCF-luciferase and tk-Renilla reporter element constructs were co-transfected along with Wnt3a/1 and Dkk.
# [3] = test system: LRP5 LBD; test: Yeast-2 hybrid interaction trap LRP5 LBD-LexA / Gal4AD-Dkk; assay type: binding; conditions: FIG. 18
# Chain of LRP5 LBD (as listed by the source): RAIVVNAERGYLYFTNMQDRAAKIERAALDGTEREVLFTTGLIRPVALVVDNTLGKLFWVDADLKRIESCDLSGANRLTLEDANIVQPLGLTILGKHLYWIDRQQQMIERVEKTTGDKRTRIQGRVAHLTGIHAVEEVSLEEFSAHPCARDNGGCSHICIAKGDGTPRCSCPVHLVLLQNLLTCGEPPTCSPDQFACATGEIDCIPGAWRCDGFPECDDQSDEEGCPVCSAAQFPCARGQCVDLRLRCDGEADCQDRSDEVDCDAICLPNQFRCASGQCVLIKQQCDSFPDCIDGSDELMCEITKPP
# Excerpt: Small molecule inhibitors (or partial inhibitors) of the Dkk-LRP interaction may be an excellent osteogenic therapeutic. One way to investigate this important protein-protein interaction is using Y2H techniques substantially as described above and as is well known in the art. […] This interaction is quantitated using a reporter element known in the art, e.g., LacZ or luciferase, which is only activated when bait and prey interact. The Y2H assay is used to screen for compounds which modulate the LRP-Dkk interaction. Such a modulation would be visualized by a reduction in reporter element activation signifying a weaker or disrupted interaction, or by an enhancement of the reporter element activation signifying a stronger interaction. Thus, the Y2H assay can be used as a high-throughput screening technique to identify compounds which disrupt or enhance Dkk interaction with LRP5/LRP6/HBM, which may serve as potential therapeutics.
# For example, the Interaction Trap methodology can be used as follows. […] With the LRP5LBD-LexA bait and the Gal4AD-Dkk prey, over a 20-fold activation of a lacZ reporter (under the control of a single LexA operator) was detected over the background. […] As a result, small molecules may be identified that modulate this interaction between LRP and Dkk.
# [4] = test system: canonical Wnt signaling; conditions: Semenov et al.; cited from earlier work
# [5] = target: LRP6 (Homo sapiens, UniProt O75581); conditions: Semenov et al.; cited from earlier work
# Chain of LRP6 (O75581 20-1613, species assumed): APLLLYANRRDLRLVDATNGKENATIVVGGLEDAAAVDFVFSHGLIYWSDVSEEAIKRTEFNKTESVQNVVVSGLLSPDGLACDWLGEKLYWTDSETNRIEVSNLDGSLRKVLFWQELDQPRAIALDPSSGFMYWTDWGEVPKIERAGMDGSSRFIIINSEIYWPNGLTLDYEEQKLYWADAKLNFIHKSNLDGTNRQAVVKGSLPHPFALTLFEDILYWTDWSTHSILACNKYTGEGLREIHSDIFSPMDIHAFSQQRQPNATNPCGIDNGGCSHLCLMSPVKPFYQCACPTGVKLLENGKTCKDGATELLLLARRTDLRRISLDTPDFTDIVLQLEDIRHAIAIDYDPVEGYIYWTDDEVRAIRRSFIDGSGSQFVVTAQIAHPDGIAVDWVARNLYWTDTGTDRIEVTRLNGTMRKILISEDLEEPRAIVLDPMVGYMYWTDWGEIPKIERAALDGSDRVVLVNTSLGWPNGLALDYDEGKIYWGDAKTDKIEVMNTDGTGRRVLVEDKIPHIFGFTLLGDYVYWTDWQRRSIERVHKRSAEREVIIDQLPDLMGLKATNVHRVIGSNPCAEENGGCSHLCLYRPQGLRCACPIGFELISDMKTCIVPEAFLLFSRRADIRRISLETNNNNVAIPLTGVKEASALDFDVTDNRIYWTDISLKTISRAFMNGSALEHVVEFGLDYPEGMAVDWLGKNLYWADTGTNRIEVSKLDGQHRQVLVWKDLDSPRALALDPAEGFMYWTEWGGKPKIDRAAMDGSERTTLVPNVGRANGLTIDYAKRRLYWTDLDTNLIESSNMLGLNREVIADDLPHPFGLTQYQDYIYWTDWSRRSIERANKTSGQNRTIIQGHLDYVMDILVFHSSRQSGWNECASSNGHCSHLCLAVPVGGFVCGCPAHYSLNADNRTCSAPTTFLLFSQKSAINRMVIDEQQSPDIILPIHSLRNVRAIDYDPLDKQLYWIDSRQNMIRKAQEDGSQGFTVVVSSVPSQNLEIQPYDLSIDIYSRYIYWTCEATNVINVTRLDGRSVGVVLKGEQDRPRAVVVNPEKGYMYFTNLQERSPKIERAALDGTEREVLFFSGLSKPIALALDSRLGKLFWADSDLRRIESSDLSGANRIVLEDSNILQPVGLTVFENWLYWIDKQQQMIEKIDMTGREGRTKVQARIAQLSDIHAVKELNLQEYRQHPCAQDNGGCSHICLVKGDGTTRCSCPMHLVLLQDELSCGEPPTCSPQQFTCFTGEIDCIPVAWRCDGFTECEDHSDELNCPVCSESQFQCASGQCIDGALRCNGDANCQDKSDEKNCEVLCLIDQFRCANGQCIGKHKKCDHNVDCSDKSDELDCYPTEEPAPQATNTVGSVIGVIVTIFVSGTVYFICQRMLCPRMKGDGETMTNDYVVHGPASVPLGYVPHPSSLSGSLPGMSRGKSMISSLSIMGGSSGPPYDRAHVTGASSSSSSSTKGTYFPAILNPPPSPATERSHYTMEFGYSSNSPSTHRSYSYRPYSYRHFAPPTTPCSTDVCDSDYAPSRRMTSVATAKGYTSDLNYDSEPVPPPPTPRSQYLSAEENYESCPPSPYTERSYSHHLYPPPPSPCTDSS
molecule,measurement,setting,value
"G171K: site-directed variant of human LRP5, introduces a charged side-chain",HBM effect / HBM activity,[1],demonstrated HBM activity
"M282V: site-directed variant of human LRP5, accessible interior position in blade 1",HBM effect / HBM activity,[1],results in an HBM-effect; also recorded: demonstrated HBM activity
same,susceptibility to modulation by Dkk,[1],less susceptible than LRP5
same,activation of TCF-luciferase reporter construct,[1],activation of the Wnt pathway; also recorded: able to activate the TCF-luciferase reporter construct
"G171Q: site-directed variant of human LRP5, introduces the propeller 4 residue",HBM effect / HBM activity,[1],demonstrated HBM activity
"G171F: site-directed variant of human LRP5 in propeller 1, introduces a ringed side-chain",HBM effect / HBM activity,[1],results in an HBM effect; also recorded: demonstrated HBM activity
same,susceptibility to modulation by Dkk,[1],less susceptible than LRP5
same,activation of TCF-luciferase reporter construct,[1],greater activation of the Wnt pathway than LRP5; also recorded: able to activate the TCF-luciferase reporter construct
"A214V: site-directed variant of human LRP5, position equivalent to 171 in blade 5",HBM effect / HBM activity,[1],demonstrated HBM activity
B1,modulation of TCF signal without Wnt DNA transfection,"[2]; no Wnt3a/Wnt1 transfection, FIG. 21",can be modulated
B2,interaction with LRP5 in yeast,[3],interaction was reduced
same,interaction with LRP5 in yeast,[3]; listed as mutant Dkk-1 (C220A),unable to bind to LRP5
same,repression of Wnt signaling,[4],unable to repress Wnt signaling
same,repression of Wnt3a-mediated TCF reporter signaling,"[2]; Wnt3a, FIG. 19",lack of TCF-reporter inhibition
same,LRP6 binding,[5],abolished LRP6 binding
